Results published in article PMC4505687, “5-HT3 Receptor Brain-Type B-Subunits are Differentially Expressed in Heterologous Systems” (ACS Chemical Neuroscience, 2015).
Read-outs that look alike come from different tables or passages of the source. Marks after values point to notes of the source that are not given here.

Legend:
[1] = molecular target: T1, 5-HT3ABr1 receptors (Homo sapiens, UniProt O95264+P46098); test: 5-HT-induced macroscopic currents, two-electrode voltage-clamp in Xenopus oocytes; assay type: cell-based; conditions: Hill slope, 5-HT3ABr1 receptors in oocytes
T1 sequence (P46098 24-478): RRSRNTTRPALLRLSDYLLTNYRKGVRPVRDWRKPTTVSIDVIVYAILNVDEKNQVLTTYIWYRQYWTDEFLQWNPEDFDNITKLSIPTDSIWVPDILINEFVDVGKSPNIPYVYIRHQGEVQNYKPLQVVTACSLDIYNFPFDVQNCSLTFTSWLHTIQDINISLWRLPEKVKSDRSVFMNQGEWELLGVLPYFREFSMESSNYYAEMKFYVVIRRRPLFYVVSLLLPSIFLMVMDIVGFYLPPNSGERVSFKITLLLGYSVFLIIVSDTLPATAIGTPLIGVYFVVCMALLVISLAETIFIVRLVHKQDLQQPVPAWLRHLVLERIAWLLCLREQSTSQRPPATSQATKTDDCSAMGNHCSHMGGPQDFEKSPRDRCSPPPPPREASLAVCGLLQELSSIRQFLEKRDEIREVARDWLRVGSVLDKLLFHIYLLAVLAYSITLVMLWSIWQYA
T1 sequence (O95264 1-430 isoform O95264-2): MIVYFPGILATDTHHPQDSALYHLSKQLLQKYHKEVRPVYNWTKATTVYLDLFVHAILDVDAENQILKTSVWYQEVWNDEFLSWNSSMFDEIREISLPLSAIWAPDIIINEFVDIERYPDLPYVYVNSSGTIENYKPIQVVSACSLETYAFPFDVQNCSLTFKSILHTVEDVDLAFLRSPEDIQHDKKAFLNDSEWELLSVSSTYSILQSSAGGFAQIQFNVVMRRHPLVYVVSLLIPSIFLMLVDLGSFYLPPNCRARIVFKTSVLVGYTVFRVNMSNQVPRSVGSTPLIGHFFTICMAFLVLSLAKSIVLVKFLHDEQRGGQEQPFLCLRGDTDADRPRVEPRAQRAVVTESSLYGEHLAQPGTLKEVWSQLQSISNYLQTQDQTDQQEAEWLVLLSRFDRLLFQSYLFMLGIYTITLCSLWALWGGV
Method: (§1) Xenopus laevis oocyte-positive females were purchased from NASCO (Fort Atkinson, WI) and maintained according to standard methods. Harvested stage V–VI Xenopus oocytes were washed in four changes of Ca-free ND96 (96 mM NaCl, 2 mM KCl, 1 mM MgCl2, 5 mM HEPES, pH 7.5), defolliculated in 1.5 mg mL^–1 collagenase Type 1A for approximately 2 h, washed again in four changes of ND96, and then stored in ND96 containing 2.5 mM sodium pyruvate, […] gentamycin, and 0.7 mM theophylline.
(§2) cDNA was cloned into pGEMHE for oocyte expression, and pcDNA3.1 (Invitrogen, Paisley, U.K.) for expression in HEK 293 cells. Mutagenesis (Figure 1) was performed using QuikChange (Agilent Technologies Inc., Santa Clara, CA). cRNA was in vitro transcribed from linearized pGEMHE cDNA template using the mMessage mMachine T7 Transcription kit (Ambion, Austin, TX). 5-HT3A was linearized with SphI and 5-HT3B cDNA with NheI. Stage V and VI oocytes were injected with 50 nL of ∼400 ng μL^–1 cRNA, and currents were recorded 1–4 days postinjection. Ratios of 1:3 (5-HT3A:5-HT3B/5-HT3Br1/5-HT3Br2) were used for the expression of heteromeric receptors unless otherwise stated.
(§3) Currents were recorded at a frequency of 5 kHz and filtered at 1 kHz. Microelectrodes were fabricated from borosilicate glass (GC120TF-10, Harvard Apparatus, Edenbridge, Kent, U.K.) using a one stage horizontal pull (P-87, Sutter Instrument Company, Novato, CA) and filled with 3 M KCl. Pipet resistances ranged from 1.0 to 2.0 MΩ. […] Drug application was via a simple gravity fed system calibrated to run at the same rate.

[2] = molecular target: T2, 5-HT3AB receptors (Homo sapiens, UniProt O95264+P46098); test: as above; assay type: cell-based; conditions: Hill slope, 5-HT3AB receptors in oocytes
T2 construct: expressed in transfected cells; host or cells: Xenopus laevis oocytes (cRNA from pGEMHE) or HEK293 cells (pcDNA3.1), A:B ratio 1:3
T2 sequence (P46098 24-478): T1 sequence (P46098 24-478)
T2 sequence (O95264 22-441): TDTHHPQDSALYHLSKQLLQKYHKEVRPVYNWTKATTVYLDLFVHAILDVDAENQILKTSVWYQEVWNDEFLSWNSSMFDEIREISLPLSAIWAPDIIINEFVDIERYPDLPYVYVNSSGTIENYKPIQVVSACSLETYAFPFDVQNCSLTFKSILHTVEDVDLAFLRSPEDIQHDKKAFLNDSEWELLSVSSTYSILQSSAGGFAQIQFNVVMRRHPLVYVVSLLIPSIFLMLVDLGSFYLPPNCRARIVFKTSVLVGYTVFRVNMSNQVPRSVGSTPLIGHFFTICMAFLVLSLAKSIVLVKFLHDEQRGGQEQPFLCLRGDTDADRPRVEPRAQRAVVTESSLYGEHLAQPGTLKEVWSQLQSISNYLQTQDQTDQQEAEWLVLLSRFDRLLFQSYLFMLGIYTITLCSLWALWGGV
Method: as §1, §2, §3

[3] = molecular target: T3, 5-HT3A receptors (Homo sapiens, UniProt P46098); test: as above; assay type: cell-based; conditions: Hill slope, 5-HT3A receptors in oocytes
T3 construct: expressed in transfected cells; host or cells: Xenopus laevis oocytes (cRNA from pGEMHE) or HEK293 cells (pcDNA3.1)
T3 sequence (P46098 24-478): T1 sequence (P46098 24-478)
Method: as §1, §2, §3

[4] = molecular target: T1, 5-HT3ABr1 receptors; test: Fluorescent membrane potential dye (FlexStation) in transfected HEK293 cells; assay type: cell-based; conditions: Hill slope, 5-HT3ABr1 receptors in HEK293 cells, mean ± SEM
Method: (§4) Human embryonic kidney (HEK) 293 cells were maintained on 90 mm tissue culture plates at 37 °C and 7% CO2 in a humidified atmosphere. They were cultured in DMEM:F12 with GlutaMAX I media (Dulbecco’s modified Eagle’s Medium/Nutrient Mix F12 (1:1), Invitrogen, Paisley, U.K.) containing 10% fetal calf serum. Cells in 90 mm dishes were transfected using polyethylenimine (PEI). Then 30 μL of PEI (1 mg/mL), 4 μL of cDNA (1 mg/mL) and 1 mL of DMEM were incubated for 10 min at room temperature, added dropwise to a 80–90% confluent plate, and incubated for 2–3 days. For Flexstation studies, cells were transferred to 96-well plates and allowed to adhere overnight before use.
as §2, with “[…] This was as previously described.[22] […] The cells” for “Ratios of 1:3 (5-HT3A:5-HT3B/5-HT3Br1/5-HT3Br2)”, “incubated at 37 °C” for “used”, “45 min, and then fluorescence was measured in a FlexStation (Molecular Devices) at 2 s intervals for 200 s. […] Analysis and curve fitting was performed using Prism (GraphPad Software, San Diego, CA, www.graphpad.com).” for “the expression of heteromeric receptors unless otherwise stated.”

[5] = molecular target: T2, 5-HT3AB receptors; test: as above; assay type: cell-based; conditions: Hill slope, 5-HT3AB receptors in HEK293 cells, mean ± SEM
Method: as §4
as §2, with “[…] This was as previously described.[22] […] The cells” for “Ratios of 1:3 (5-HT3A:5-HT3B/5-HT3Br1/5-HT3Br2)”, “incubated at 37 °C” for “used”, “45 min, and then fluorescence was measured in a FlexStation (Molecular Devices) at 2 s intervals for 200 s. […] Analysis and curve fitting was performed using Prism (GraphPad Software, San Diego, CA, www.graphpad.com).” for “the expression of heteromeric receptors unless otherwise stated.”

[6] = molecular target: T3, 5-HT3A receptors; test: as above; assay type: cell-based; conditions: Hill slope, 5-HT3A receptors in HEK293 cells, mean ± SEM
Method: as §4
as §2, with “[…] This was as previously described.[22] […] The cells” for “Ratios of 1:3 (5-HT3A:5-HT3B/5-HT3Br1/5-HT3Br2)”, “incubated at 37 °C” for “used”, “45 min, and then fluorescence was measured in a FlexStation (Molecular Devices) at 2 s intervals for 200 s. […] Analysis and curve fitting was performed using Prism (GraphPad Software, San Diego, CA, www.graphpad.com).” for “the expression of heteromeric receptors unless otherwise stated.”

[7] = molecular target: T4, 5-HT3ABr2 receptors (Homo sapiens, UniProt P46098); test: as above; assay type: cell-based; conditions: Hill slope, 5-HT3ABr2 receptors in HEK293 cells, mean ± SEM
T4 construct: expressed in transfected cells; host or cells: Xenopus laevis oocytes (cRNA from pGEMHE) or HEK293 cells (pcDNA3.1), A:Br2 ratio 1:3 unless otherwise stated
T4 sequence (P46098 24-478): T1 sequence (P46098 24-478)
Method: as §4
as §2, with “[…] This was as previously described.[22] […] The cells” for “Ratios of 1:3 (5-HT3A:5-HT3B/5-HT3Br1/5-HT3Br2)”, “incubated at 37 °C” for “used”, “45 min, and then fluorescence was measured in a FlexStation (Molecular Devices) at 2 s intervals for 200 s. […] Analysis and curve fitting was performed using Prism (GraphPad Software, San Diego, CA, www.graphpad.com).” for “the expression of heteromeric receptors unless otherwise stated.”

[8] = test system: 5-HT3 receptors (5-HT3A, 5-HT3AB, 5-HT3ABr1, 5-HT3ABr2); test: Competition binding against [3H]granisetron at different 5-HT3 receptors expressed in HEK293 cells
Method: Transfected HEK 293 cells were scraped into 1 mL of ice-cold HEPES buffer (10 mM, pH 7.4) and frozen. […] For competition binding (8 point), reactions were incubated for at least 1 h at 4 °C. Reactions were terminated by vacuum filtration using a Brandel cell harvester onto GF/B filters presoaked in 0.3% polyethylenimine. Radioactivity was determined by scintillation counting using a Beckman BCLS6500 instrument (Fullerton, CA). Individual competition binding experiments were analyzed by iterative curve fitting using Prism.

[9] = molecular target: T4, 5-HT3ABr2 receptors; test: 5-HT-induced macroscopic currents, two-electrode voltage-clamp in Xenopus oocytes; assay type: cell-based
Method: as §1, §2, §3

[10] = molecular target: T3, 5-HT3A receptors; conditions: cited from earlier work
[11] = competition with 1 nM [3H]granisetron, values shown only in Figure 5

## NCCc1c[nH]c2ccc(O)cc12 [5-HT, 5-hydroxytryptamine]
[1]
  nH: 1.0
[2]
  nH: 1.0
[3]
  nH: 2.6
[4]
  nH, parameters from functional data: 1.5 ± 0.3 ^b
[5]
  nH, parameters from functional data: 1.3 ± 0.2 ^b
[6]
  nH, parameters from functional data: 3.6 ± 0.8
[7]
  nH, parameters from functional data: 2.9 ± 0.4 ^c

## CN1[C@@H]2CC[C@H]1C[C@@H](OC(=O)c1cc(Cl)cc(Cl)c1)C2 [MDL-72222]
[8]; [11]
  Ki, rank order of potency and comparison between receptor subtypes: palonosetron > granisetron > MDL-72222 > mCPBG > d-TC

## COc1cc2c3cc1Oc1cc(ccc1O)C[C@@H]1c4c(cc(OC)c(O)c4Oc4ccc(cc4)C[C@@H]3N(C)CC2)CC[N+]1(C)C [d-TC, d-tubocurarine]
[8]
  Ki, rank order of potency and comparison between receptor subtypes: palonosetron > granisetron > MDL-72222 > mCPBG > d-TC

## NC(N)=NC(N)=Nc1cccc(Cl)c1 [mCPBG]
[8]; [11]
  Ki, rank order of potency and comparison between receptor subtypes: palonosetron > granisetron > MDL-72222 > mCPBG > d-TC

## O=C1c2cccc3c2[C@H](CCC3)CN1[C@@H]1CN2CCC1CC2 [palonosetron]
[8]; [11]
  Ki, rank order of potency and comparison between receptor subtypes: palonosetron > granisetron > MDL-72222 > mCPBG > d-TC

## C=C(C)[C@@H]1[C@H]2OC(=O)[C@@H]1[C@]1(O)C[C@H]3O[C@]34C(=O)O[C@H]2[C@]14C [picrotoxinin]
[9]
  IC50: 17 µM
[10]
  IC50: 11 µM
